For orientation: viability, T/C means the result in the treated group divided by that in the control group, in per cent.

Molecules are shown by their SMILES.

We go through five compounds from PubChem BioAssay AID1963845 (Molecular Pharmacology Branch, DTP, NCI, 2024).
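Note: luminescence signal used as surrogate measure of viable cells; spheroids exposed to compounds for seven days before readout; 100% = DMSO vehicle control viability as luminescence relative to vehicle.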

The test system of the first assay is 429239-143-T-J1-PDC complex spheroid viability. In words: Anticancer human tumor 429239-143-T-J1-PDC patient-derived small cell lung carcinoma cell line growth inhibition [POLQ]. The following applies: second compound 3.16 µM; first compound 0.1 µM; stronger effect = lower value. In a few lines: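 PDC + HUVEC + MSC complex spheroids; POLQ inhibitors ± partner drugs; top conc. at/near clinical Cmax, else 10 microM (SN-38 1 microM), half-log dilutions; 37 degrees C, 5% CO2.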
On to `CCc1cc2c(N3CCc4c(cc(Cn5ccnc5)cc4-c4cn(C)nc4C(F)(F)F)C3=O)cc(C)nc2c(OC)n1` + Cc1cccc(N(C)C(=O)C2C(O)CCN2c2nc(C)cc(C(F)(F)F)c2C#N)c1, for which the viability, T/C was 101%.
As for `CCc1cc2c(N3CCc4c(cc(Cn5ccnc5)cc4-c4cn(C)nc4C(F)(F)F)C3=O)ccnc2c(OC)n1` + Cc1cccc(N(C)C(=O)C2C(O)CCN2c2nc(C)cc(C(F)(F)F)c2C#N)c1, the viability, T/C is 108%.
The same measure, in the same setting: as for `COc1ccc([C@@H](O)c2cc(-c3ncnc4cc(N5CCOCC5)ccc34)c(F)cc2Cl)nn1` + Cc1cccc(N(C)C(=O)C2C(O)CCN2c2nc(C)cc(C(F)(F)F)c2C#N)c1, the figure is 98.8%.

The assay is the same for the next values; noted with them: second compound 3.16 µM; first compound 0.316 µM; stronger effect = lower value.
As to `C=CC(=O)N1CCN(c2nc(=O)n(-c3c(C)ccnc3C(C)C)c3nc(-c4c(O)cccc4F)c(F)cc23)C(C)C1` (stereo unspecified) + Cc1cccc(N(C)C(=O)C2C(O)CCN2c2nc(C)cc(C(F)(F)F)c2C#N)c1, the viability, T/C was 86.6%.
The same measure, in the same setting: for `CC(C)n1c(=O)n(C)c2cnc3cc(F)c(-c4ccc(OCCCN5CCCCC5)nc4)cc3c21` + Cc1cccc(N(C)C(=O)C2C(O)CCN2c2nc(C)cc(C(F)(F)F)c2C#N)c1 the value was 88.8%; for `CCc1cc2c(N3CCc4c(cc(Cn5ccnc5)cc4-c4cn(C)nc4C(F)(F)F)C3=O)cc(C)nc2c(OC)n1` + Cc1cccc(N(C)C(=O)C2C(O)CCN2c2nc(C)cc(C(F)(F)F)c2C#N)c1, 91.6%; for `CCc1cc2c(N3CCc4c(cc(Cn5ccnc5)cc4-c4cn(C)nc4C(F)(F)F)C3=O)ccnc2c(OC)n1` + Cc1cccc(N(C)C(=O)C2C(O)CCN2c2nc(C)cc(C(F)(F)F)c2C#N)c1, 96.5%.
On the same count and under the same terms, for `COc1ccc([C@@H](O)c2cc(-c3ncnc4cc(N5CCOCC5)ccc34)c(F)cc2Cl)nn1` + Cc1cccc(N(C)C(=O)C2C(O)CCN2c2nc(C)cc(C(F)(F)F)c2C#N)c1 the value was 97.2%.

Still in this assay, the particulars now being: second compound 3.16 µM; first compound 1 µM; stronger effect = lower value.
With `C=CC(=O)N1CCN(c2nc(=O)n(-c3c(C)ccnc3C(C)C)c3nc(-c4c(O)cccc4F)c(F)cc23)C(C)C1` (stereo unspecified) + Cc1cccc(N(C)C(=O)C2C(O)CCN2c2nc(C)cc(C(F)(F)F)c2C#N)c1, the viability, T/C is 101%.
The same measure, in the same setting: as for `CC(C)n1c(=O)n(C)c2cnc3cc(F)c(-c4ccc(OCCCN5CCCCC5)nc4)cc3c21` + Cc1cccc(N(C)C(=O)C2C(O)CCN2c2nc(C)cc(C(F)(F)F)c2C#N)c1, the figure is 87.8%; as for `CCc1cc2c(N3CCc4c(cc(Cn5ccnc5)cc4-c4cn(C)nc4C(F)(F)F)C3=O)cc(C)nc2c(OC)n1` + Cc1cccc(N(C)C(=O)C2C(O)CCN2c2nc(C)cc(C(F)(F)F)c2C#N)c1, 90.6%.
For the compound `CCc1cc2c(N3CCc4c(cc(Cn5ccnc5)cc4-c4cn(C)nc4C(F)(F)F)C3=O)ccnc2c(OC)n1` + Cc1cccc(N(C)C(=O)C2C(O)CCN2c2nc(C)cc(C(F)(F)F)c2C#N)c1, the viability, T/C was 95.6%.
Take `COc1ccc([C@@H](O)c2cc(-c3ncnc4cc(N5CCOCC5)ccc34)c(F)cc2Cl)nn1` + Cc1cccc(N(C)C(=O)C2C(O)CCN2c2nc(C)cc(C(F)(F)F)c2C#N)c1: the viability, T/C is 79.5%.

The same assay, now with this note: second compound 3.16 µM; first compound 3.16 µM; stronger effect = lower value.
For `C=CC(=O)N1CCN(c2nc(=O)n(-c3c(C)ccnc3C(C)C)c3nc(-c4c(O)cccc4F)c(F)cc23)C(C)C1` (stereo unspecified) + Cc1cccc(N(C)C(=O)C2C(O)CCN2c2nc(C)cc(C(F)(F)F)c2C#N)c1, the viability, T/C is 104%.
The same measure, in the same setting: as for `CC(C)n1c(=O)n(C)c2cnc3cc(F)c(-c4ccc(OCCCN5CCCCC5)nc4)cc3c21` + Cc1cccc(N(C)C(=O)C2C(O)CCN2c2nc(C)cc(C(F)(F)F)c2C#N)c1, the figure is 77.6%; as for `CCc1cc2c(N3CCc4c(cc(Cn5ccnc5)cc4-c4cn(C)nc4C(F)(F)F)C3=O)cc(C)nc2c(OC)n1` + Cc1cccc(N(C)C(=O)C2C(O)CCN2c2nc(C)cc(C(F)(F)F)c2C#N)c1, 77.5%.
Still for that read-out and setting: for `CCc1cc2c(N3CCc4c(cc(Cn5ccnc5)cc4-c4cn(C)nc4C(F)(F)F)C3=O)ccnc2c(OC)n1` + Cc1cccc(N(C)C(=O)C2C(O)CCN2c2nc(C)cc(C(F)(F)F)c2C#N)c1 the value was 77.7%; for `COc1ccc([C@@H](O)c2cc(-c3ncnc4cc(N5CCOCC5)ccc34)c(F)cc2Cl)nn1` + Cc1cccc(N(C)C(=O)C2C(O)CCN2c2nc(C)cc(C(F)(F)F)c2C#N)c1, 47.7%.

Still in this assay, the particulars now being: second compound 3.16 µM; first compound 10 µM; stronger effect = lower value.
Turning to `C=CC(=O)N1CCN(c2nc(=O)n(-c3c(C)ccnc3C(C)C)c3nc(-c4c(O)cccc4F)c(F)cc23)C(C)C1` (stereo unspecified) + Cc1cccc(N(C)C(=O)C2C(O)CCN2c2nc(C)cc(C(F)(F)F)c2C#N)c1, the viability, T/C was 122%.
Same read-out and setting: for `CC(C)n1c(=O)n(C)c2cnc3cc(F)c(-c4ccc(OCCCN5CCCCC5)nc4)cc3c21` + Cc1cccc(N(C)C(=O)C2C(O)CCN2c2nc(C)cc(C(F)(F)F)c2C#N)c1 the value was 64.7%.
Same read-out and setting: as for `CCc1cc2c(N3CCc4c(cc(Cn5ccnc5)cc4-c4cn(C)nc4C(F)(F)F)C3=O)cc(C)nc2c(OC)n1` + Cc1cccc(N(C)C(=O)C2C(O)CCN2c2nc(C)cc(C(F)(F)F)c2C#N)c1, the figure is 54.6%.
Still for that read-out and setting: as for `CCc1cc2c(N3CCc4c(cc(Cn5ccnc5)cc4-c4cn(C)nc4C(F)(F)F)C3=O)ccnc2c(OC)n1` + Cc1cccc(N(C)C(=O)C2C(O)CCN2c2nc(C)cc(C(F)(F)F)c2C#N)c1, the figure is 50.8%.
For the compound `COc1ccc([C@@H](O)c2cc(-c3ncnc4cc(N5CCOCC5)ccc34)c(F)cc2Cl)nn1` + Cc1cccc(N(C)C(=O)C2C(O)CCN2c2nc(C)cc(C(F)(F)F)c2C#N)c1, the viability, T/C is 8.69%.

Staying with this assay, now noted: second compound 10 µM; first compound 0.0316 µM; stronger effect = lower value.
`C=CC(=O)N1CCN(c2nc(=O)n(-c3c(C)ccnc3C(C)C)c3nc(-c4c(O)cccc4F)c(F)cc23)C(C)C1` (stereo unspecified) + Cc1cccc(N(C)C(=O)C2C(O)CCN2c2nc(C)cc(C(F)(F)F)c2C#N)c1: the viability, T/C is 98.8%.
The same measure, in the same setting: for `CC(C)n1c(=O)n(C)c2cnc3cc(F)c(-c4ccc(OCCCN5CCCCC5)nc4)cc3c21` + Cc1cccc(N(C)C(=O)C2C(O)CCN2c2nc(C)cc(C(F)(F)F)c2C#N)c1 the value was 83.3%; for `CCc1cc2c(N3CCc4c(cc(Cn5ccnc5)cc4-c4cn(C)nc4C(F)(F)F)C3=O)cc(C)nc2c(OC)n1` + Cc1cccc(N(C)C(=O)C2C(O)CCN2c2nc(C)cc(C(F)(F)F)c2C#N)c1, 108%.
